# Test results published in publication PMC9411704, “Assessment of the Carcinogenic Potential of Pretomanid in Transgenic Tg.rasH2 Mice” (International Journal of Toxicology, 2022).
# Like-named read-outs stand apart in the source and are kept apart here.
# Legend:
# [1] = system: Salmonella typhimurium TA98, TA100, TA1535, TA1537 and Escherichia coli WP2uvrA; assay: Bacterial reverse mutation (Ames) assay, overall over five tester strains; type: cell-based; conditions: up to 5000 μg/plate
# Experimental: (§1) Pretomanid and metabolite M50 were evaluated over a range of concentrations, with and without an added metabolic activation system, in five tester strains: Salmonella typhimurium histidine auxotrophs TA98, TA100, TA1535, and TA1537 [9] and the Escherichia coli tryptophan auxotroph WP2uvrA. S. typhimurium strains were received from Dr. Bruce Ames, Department of Biochemistry, University of California (Berkeley, CA). The E. coli strain was received from The National Collection of Industrial Bacteria, Torrey Research Station, Aberdeen, Scotland (United Kingdom). The metabolic activation system was a liver homogenate (S9) mix. The S9 component was prepared from male Sprague-Dawley rats that had been injected (intraperitoneally) with Aroclor^TM 1254 at 500 mg/kg, 5 days before sacrifice. The S9 mix was prepared immediately before use and contained 10% S9, 5 mM glucose-6-phosphate, 4 mM β-nicotinamide adenine dinucleotide phosphate, 8 mM MgCl2 and 33 mM KCl in a 100 mM phosphate buffer at pH 7.4. Pretomanid was tested at 0.05 to 5000 μg/plate. Metabolite M50 was tested at 78 to 2500 μg/plate. A negative (solvent) control culture and appropriate positive control cultures were included in each assay.
# (§2) Bacteria were exposed to test materials by the plate incorporation method originally described by Ames et al and updated by Maron and Ames. Bottom agar was Vogel-Bonner minimal medium E [12] with 1.5% (w/v) agar, and the top Agar was 0.7% (w/v) agar and 0.5% (w/v) NaCl. After incubation, cultures were evaluated using a dissecting microscope for precipitation or cytotoxicity, and revertant colonies were counted. The mean numbers of revertant colonies in various cultures were compared to reach conclusions about assay validity and mutagenic potential. For the test article to be evaluated positive, it must cause a dose-related increase in the mean revertants per plate of at least one tester strain with a minimum of two increasing concentrations of test article.
# Escherichia coli WP2uvrA = assay: Bacterial reverse mutation (Ames) assay, plate incorporation
# Experimental: as §1, §2
# [2] = Toxicokinetic assessment in wild-type CByB6F1 mice (Day 14); type: in vivo
# Experimental: TK animals were included for the vehicle control (n = 4 sex) and pretomanid-treated groups (n = 10 sex/group). The TK cohort animals were dosed by oral gavage once daily for 14 consecutive days.
# Toxicokinetic blood samples (300 μL for males and 250 μL for females) were collected in K3EDTA tubes after 14 doses from the TK cohort via retro-orbital bleeding under 70% CO2/30% O2 anesthesia. On Day 14, control mice were bled once 2 hours after dosing. On Day 14 and 15, Pretomanid-treated mice were bled predose, 0.5, 1, 3, 6, and 24 hours post dose. TK animals were euthanized after their final blood collection.
# Collected blood was stored on wet ice until the samples were processed to plasma. Blood samples were centrifuged at 4±2°C and 8000 g for 5 minutes. Plasma was snap frozen in liquid nitrogen and stored in a deep freezer (≤−60°C) within 60 minutes of bleeding the TK animals.
# Pretomanid and the M50 metabolite were quantified in mouse plasma by liquid chromatography-tandem mass spectrometry (LC-MS/MS) after protein precipitation. Aliquots of 25 µL of plasma were spiked with internal standards (PA-824-d5 or morphine) and proteins were precipitated in 1% formic acid in acetonitrile. A partial supernatant from each sample was transferred to a clean plate and diluted in acetonitrile/water (40:60) for pretomanid and deionized water for M50. Supernatant was analyzed for pretomanid or M50 using validated LC-MS/MS methods with a linear range of 20 to 10,000 ng/mL for pretomanid and 10 to 5,000 ng/mL for M50 (methods validated at Alliance Pharma, Malvern PA).
# Sample collection time and plasma concentration data were analyzed to derive TK parameters by standard model independent methods based on the mean plasma concentration-time data for each dose group. The TK analyses of the plasma concentration profiles were performed using non-compartmental analysis in Phoenix WinNonlin Professional 7.0 (Certara, L.P., St. Louis, MO, USA). Concentration values below the lower limit of quantitation were treated as zeros for analysis purposes.
# [3] = system: Salmonella typhimurium TA1537; assay: Bacterial reverse mutation (Ames) assay, plate incorporation; type: cell-based
# Experimental: as §1, §2
# [4] = system: Salmonella typhimurium TA98; assay: as above; type: cell-based
# Experimental: as §1, §2
# [5] = system: Salmonella typhimurium TA100; assay: as above; type: cell-based
# Experimental: as §1, §2
# [6] = system: Salmonella typhimurium TA1535; assay: as above; type: cell-based
# Experimental: as §1, §2
compound,measurement,setting,value
"O=[N+]([O-])c1cn2c(n1)OC[C@@H](OCc1ccc(OC(F)(F)F)cc1)C2 [Pretomanid, (6S)-2-nitro-6-{[4-(trifluoromethoxy)benzyl]oxy}-6,7-dihydro-5H-imidazo[2,1-b][1,3]oxazine]",Change in number of revertant colonies,[1]; any tester strain under any conditions,did not cause a significant increase
same,Cytotoxicity in the Ames assay,[1],no appreciable cytotoxicity
same,Mutagenic potential,[1]; with and without S9,negative
same,Mean Number of Revertants/Plate,"Escherichia coli WP2uvrA; WP2uvrA +S9, 100 μg/plate",16 Revertants/Plate
same,Mean Number of Revertants/Plate,"Escherichia coli WP2uvrA; WP2uvrA +S9, 333 μg/plate",17 Revertants/Plate
same,Mean Number of Revertants/Plate,"Escherichia coli WP2uvrA; WP2uvrA +S9, 1000 μg/plate",15 Revertants/Plate
same,Mean Number of Revertants/Plate,"Escherichia coli WP2uvrA; WP2uvrA +S9, 3333 μg/plate",10 Revertants/Plate
same,Mean Number of Revertants/Plate,"Escherichia coli WP2uvrA; WP2uvrA +S9, 5000 μg/plate",14 Revertants/Plate
same,Mean Number of Revertants/Plate,"Escherichia coli WP2uvrA; WP2uvrA −S9, 100 μg/plate",23 Revertants/Plate
same,Mean Number of Revertants/Plate,"Escherichia coli WP2uvrA; WP2uvrA −S9, 333 μg/plate",21 Revertants/Plate
same,Mean Number of Revertants/Plate,"Escherichia coli WP2uvrA; WP2uvrA −S9, 1000 μg/plate",17 Revertants/Plate
same,Mean Number of Revertants/Plate,"Escherichia coli WP2uvrA; WP2uvrA −S9, 3333 μg/plate",11 Revertants/Plate
same,Mean Number of Revertants/Plate,"Escherichia coli WP2uvrA; WP2uvrA −S9, 5000 μg/plate",16 Revertants/Plate
same,AUC(0-t),"[2]; CByB6F1 (wild-type), mouse, female, pretomanid 10 mg/kg/day oral, Day 14, plasma, read-out: Pretomanid AUC0-24",24900 ng·h/mL
same,Cmax,"[2]; CByB6F1 (wild-type), mouse, female, pretomanid 30 mg/kg/day oral, Day 14, plasma",6900 ng/mL
same,AUC(0-t),"[2]; CByB6F1 (wild-type), mouse, female, pretomanid 30 mg/kg/day oral, Day 14, plasma, read-out: Pretomanid AUC0-24",87500 ng·h/mL
same,Cmax,"[2]; CByB6F1 (wild-type), mouse, female, pretomanid 80 mg/kg/day oral, Day 14, plasma",16200 ng/mL
same,AUC(0-t),"[2]; CByB6F1 (wild-type), mouse, female, pretomanid 80 mg/kg/day oral, Day 14, plasma, read-out: Pretomanid AUC0-24",186000 ng·h/mL
same,Exposure to pretomanid relative to exposure to the M50 metabolite,"[2]; Day 14, all dose levels, both sexes",more than 10 times
same,AUC(0-t),"[2]; both sexes, CByB6F1 (wild-type), mouse, plasma, oral, high dose (40 male, 80 female mg/kg/day), read-out: Gender averaged mouse AUC0-24 of pretomanid",149000 ng·h/mL
same,Cmax,"[2]; wild-type CByB6F1, mouse, female, pretomanid 10 mg/kg/day oral, Day 14, plasma",2900 ng/mL
same,Cmax,"[2]; wild-type CByB6F1, mouse, male, pretomanid 5 mg/kg/day oral, Day 14, plasma",1800 ng/mL
same,AUC(0-t),"[2]; wild-type CByB6F1, mouse, male, pretomanid 5 mg/kg/day oral, Day 14, plasma, read-out: Pretomanid AUC0-24",13700 ng·h/mL
same,Cmax,"[2]; wild-type CByB6F1, mouse, male, pretomanid 15 mg/kg/day oral, Day 14, plasma",4900 ng/mL
same,AUC(0-t),"[2]; wild-type CByB6F1, mouse, male, pretomanid 15 mg/kg/day oral, Day 14, plasma, read-out: Pretomanid AUC0-24",50800 ng·h/mL
same,Cmax,"[2]; wild-type CByB6F1, mouse, male, pretomanid 40 mg/kg/day oral, Day 14, plasma",10400 ng/mL
same,AUC(0-t),"[2]; wild-type CByB6F1, mouse, male, pretomanid 40 mg/kg/day oral, Day 14, plasma, read-out: Pretomanid AUC0-24",112000 ng·h/mL
same,Mean Number of Revertants/Plate,"[3]; TA1537 +S9, 100 μg/plate",9 Revertants/Plate
same,Mean Number of Revertants/Plate,"[3]; TA1537 +S9, 333 μg/plate",6 Revertants/Plate
same,Mean Number of Revertants/Plate,"[3]; TA1537 +S9, 1000 μg/plate",5 Revertants/Plate
same,Mean Number of Revertants/Plate,"[3]; TA1537 +S9, 3333 μg/plate",5 Revertants/Plate
same,Mean Number of Revertants/Plate,"[3]; TA1537 +S9, 5000 μg/plate",4 Revertants/Plate
same,Mean Number of Revertants/Plate,"[3]; TA1537 −S9, 100 μg/plate",5 Revertants/Plate
same,Mean Number of Revertants/Plate,"[3]; TA1537 −S9, 333 μg/plate",5 Revertants/Plate
same,Mean Number of Revertants/Plate,"[3]; TA1537 −S9, 1000 μg/plate",10 Revertants/Plate
same,Mean Number of Revertants/Plate,"[3]; TA1537 −S9, 3333 μg/plate",5 Revertants/Plate
same,Mean Number of Revertants/Plate,"[3]; TA1537 −S9, 5000 μg/plate",5 Revertants/Plate
same,Mean Number of Revertants/Plate,"[4]; TA98 +S9, 100 μg/plate",22 Revertants/Plate
same,Mean Number of Revertants/Plate,"[4]; TA98 +S9, 333 μg/plate",26 Revertants/Plate
same,Mean Number of Revertants/Plate,"[4]; TA98 +S9, 1000 μg/plate",23 Revertants/Plate
same,Mean Number of Revertants/Plate,"[4]; TA98 +S9, 3333 μg/plate",16 Revertants/Plate
same,Mean Number of Revertants/Plate,"[4]; TA98 +S9, 5000 μg/plate",22 Revertants/Plate
same,Mean Number of Revertants/Plate,"[4]; TA98 −S9, 100 μg/plate",25 Revertants/Plate
same,Mean Number of Revertants/Plate,"[4]; TA98 −S9, 333 μg/plate",12 Revertants/Plate
same,Mean Number of Revertants/Plate,"[4]; TA98 −S9, 1000 μg/plate",18 Revertants/Plate
same,Mean Number of Revertants/Plate,"[4]; TA98 −S9, 3333 μg/plate",17 Revertants/Plate
same,Mean Number of Revertants/Plate,"[4]; TA98 −S9, 5000 μg/plate",15 Revertants/Plate
same,Mean Number of Revertants/Plate,"[5]; TA100 +S9, 100 μg/plate",137 Revertants/Plate
same,Mean Number of Revertants/Plate,"[5]; TA100 +S9, 333 μg/plate",179 Revertants/Plate
same,Mean Number of Revertants/Plate,"[5]; TA100 +S9, 1000 μg/plate",173 Revertants/Plate
same,Mean Number of Revertants/Plate,"[5]; TA100 +S9, 3333 μg/plate",166 Revertants/Plate
same,Mean Number of Revertants/Plate,"[5]; TA100 +S9, 5000 μg/plate",179 Revertants/Plate
same,Mean Number of Revertants/Plate,"[5]; TA100 −S9, 100 μg/plate",119 Revertants/Plate
same,Mean Number of Revertants/Plate,"[5]; TA100 −S9, 333 μg/plate",107 Revertants/Plate
same,Mean Number of Revertants/Plate,"[5]; TA100 −S9, 1000 μg/plate",115 Revertants/Plate
same,Mean Number of Revertants/Plate,"[5]; TA100 −S9, 3333 μg/plate",99 Revertants/Plate
same,Mean Number of Revertants/Plate,"[5]; TA100 −S9, 5000 μg/plate",106 Revertants/Plate
same,Mean Number of Revertants/Plate,"[6]; TA1535 +S9, 100 μg/plate",12 Revertants/Plate
same,Mean Number of Revertants/Plate,"[6]; TA1535 +S9, 333 μg/plate",13 Revertants/Plate
same,Mean Number of Revertants/Plate,"[6]; TA1535 +S9, 1000 μg/plate",10 Revertants/Plate
same,Mean Number of Revertants/Plate,"[6]; TA1535 +S9, 3333 μg/plate",11 Revertants/Plate
same,Mean Number of Revertants/Plate,"[6]; TA1535 +S9, 5000 μg/plate",14 Revertants/Plate
same,Mean Number of Revertants/Plate,"[6]; TA1535 −S9, 100 μg/plate",9 Revertants/Plate
same,Mean Number of Revertants/Plate,"[6]; TA1535 −S9, 333 μg/plate",10 Revertants/Plate
same,Mean Number of Revertants/Plate,"[6]; TA1535 −S9, 1000 μg/plate",10 Revertants/Plate
same,Mean Number of Revertants/Plate,"[6]; TA1535 −S9, 3333 μg/plate",8 Revertants/Plate
same,Mean Number of Revertants/Plate,"[6]; TA1535 −S9, 5000 μg/plate",7 Revertants/Plate
